≈ marks a conversion by molar mass, not a printed value.
Assay: physchem
Method: Methomyl and oxamyl were added to various methanol:water solvent systems ranging from 100% CH3 OH to 40% CH3 OH:60% H2 O. The methomyl and oxamyl were dissolved separately or combined on a 1:1 weight ratio in the solvent systems at room temperature at a concentration exceeding the solubility limit at -6° C. Each sample was seeded with methomyl and/or oxamyl at -6° C. and allowed to crystallize until equilibrium was established. The supernatant liquid of each sample was assayed for methomyl and/or oxamyl by liquid chromatography.

Question: For `CNC(=O)ON=C(C)SC` [Methomyl], which solubility (40/60 ch3oh/h2o, Methomyl alone in solvent, alone, -6° C.) is on record?
Answer: 62 mg/mL (≈ 382 mM)

Question: And the solubility (40/60 ch3oh/h2o, both actives in solvent: Methomyl, with oxamyl 1:1 wt., 40/60 CH3OH/H2O, -6° C.)?
Answer: 188 mg/mL (≈ 1160 mM)

Question: And the solubility (50/50 ch3oh/h2o, Methomyl alone in solvent, alone, -6° C.)?
Answer: 105 mg/mL (≈ 647 mM)

Question: What about the solubility (50/50 ch3oh/h2o, both actives in solvent: Methomyl, with oxamyl 1:1 wt., 50/50 CH3OH/H2O, -6° C.) of the same compound?
Answer: 237 mg/mL (≈ 1460 mM)

Question: And the solubility (60/40 ch3oh/h2o, Methomyl alone in solvent, alone, -6° C.)?
Answer: 155 mg/mL (≈ 956 mM)

Question: What about the solubility (60/40 ch3oh/h2o, both actives in solvent: Methomyl, with oxamyl 1:1 wt., 60/40 CH3OH/H2O, -6° C.) of the same compound?
Answer: 355 mg/mL (≈ 2190 mM)

Question: And the solubility (70/30 ch3oh/h2o, Methomyl alone in solvent, alone, -6° C.)?
Answer: 208 mg/mL (≈ 1280 mM)

Question: And the solubility (70/30 ch3oh/h2o, both actives in solvent: Methomyl, with oxamyl 1:1 wt., 70/30 CH3OH/H2O, -6° C.)?
Answer: 438 mg/mL (≈ 2700 mM)

Question: What about the solubility (80/20 ch3oh/h2o, Methomyl alone in solvent, alone, -6° C.) of the same compound?
Answer: 263 mg/mL (≈ 1620 mM)

Question: And the solubility (80/20 ch3oh/h2o, both actives in solvent: Methomyl, with oxamyl 1:1 wt., 80/20 CH3OH/H2O, -6° C.)?
Answer: 581 mg/mL (≈ 3580 mM)

Question: What about the solubility (90/10 ch3oh/h2o, Methomyl alone in solvent, alone, -6° C.) of the same compound?
Answer: 299 mg/mL (≈ 1840 mM)

Question: What about the solubility (90/10 ch3oh/h2o, both actives in solvent: Methomyl, with oxamyl 1:1 wt., 90/10 CH3OH/H2O, -6° C.) of the same compound?
Answer: 664 mg/mL (≈ 4090 mM)

Question: What about the “Solubility, Methomyl alone in solvent” value (alone, 100/0 CH3OH/H2O, -6° C.) of the same compound?
Answer: 30.7 gms/100 gms

Question: And the “Solubility when dissolved together in the solvents taught” value (summary of Examples 2-7)?
Answer: increases in solubility occur

Question: And the “Solubility, both actives in solvent: Methomyl” value (with oxamyl 1:1 wt., 100/0 CH3OH/H2O, -6° C.)?
Answer: 63.9 gms/100 gms

From patent publication US4032654A, “Water-soluble, liquid concentrates of S-methyl-[(methyl-carbamoyl)oxy]-thioacetimidate and methyl N', N'-dimethyl-N-[(methyl-carbamoyl)oxy]-1-thiooxamimidate” (priority 1975, dated 1977)
